Laboratory results reported in patent US7132287B2, “Method for neural stem cell differentiation using 5HT-1A agonists” (Psychiatric Genomics, Inc., priority 2001, dated 2006).
Several values for one entry are separate records, joined by “and”; a condition that tells them apart may be missing. Identical values can stand only once.

Assays:
[1] = target: T1, 5HT1A receptor (Homo sapiens, UniProt P08908); conditions: cited from earlier work
T1 sequence (P08908 1-422): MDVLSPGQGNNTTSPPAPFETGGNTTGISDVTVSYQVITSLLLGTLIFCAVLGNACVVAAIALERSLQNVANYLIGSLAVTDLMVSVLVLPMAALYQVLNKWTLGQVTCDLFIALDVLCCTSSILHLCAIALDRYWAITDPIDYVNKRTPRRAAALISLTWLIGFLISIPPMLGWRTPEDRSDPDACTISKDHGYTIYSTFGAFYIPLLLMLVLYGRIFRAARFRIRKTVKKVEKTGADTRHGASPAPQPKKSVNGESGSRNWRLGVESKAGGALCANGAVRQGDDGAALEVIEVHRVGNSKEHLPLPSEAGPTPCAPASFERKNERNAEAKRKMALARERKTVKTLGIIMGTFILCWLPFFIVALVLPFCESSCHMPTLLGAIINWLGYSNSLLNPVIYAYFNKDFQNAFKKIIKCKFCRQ

[2] = target: T1, 5HT1A receptor; conditions: cited from earlier work; remark: listed apart in the source
[3] = tested on: cerebellar neural stem cells
Procedure: Cells were treated with the drugs as shown in the presence or absence of the 5HT 1A antagonist WAY 100635 (10 nM), or vasoactive intestinal peptide
Drug treatments were started on the next day. Optimal concentrations were as follows: bFGF: 10 ng/ml; BDNF (R&D Systems, Minneapolis, Minn.): 20 ng/ml; buspirone (Sigma): 100–1000 nM; or Serotonin (Sigma): 5–10 μM; buspirone or serotonin and the 5HT1A antagonist WAY100635 (Sigma): 10 nM. The WAY 100635 antagonist compound was used simultaneously with buspirone or serotonin in the blocking experiments. Positive and negative control cultures were those treated with BDNF and FGF alone, respectively.
Untreated cells were used as a negative control.

[4] = tested on: adult rat hippocampus; conditions: Mahlberg et al., preliminary data; cited from earlier work
[5] = target: T2, 5-HT1A receptors over dopamine D2 receptors (Homo sapiens, UniProt P08908); conditions: compared to buspirone; cited from earlier work
T2 sequence (P08908 1-422): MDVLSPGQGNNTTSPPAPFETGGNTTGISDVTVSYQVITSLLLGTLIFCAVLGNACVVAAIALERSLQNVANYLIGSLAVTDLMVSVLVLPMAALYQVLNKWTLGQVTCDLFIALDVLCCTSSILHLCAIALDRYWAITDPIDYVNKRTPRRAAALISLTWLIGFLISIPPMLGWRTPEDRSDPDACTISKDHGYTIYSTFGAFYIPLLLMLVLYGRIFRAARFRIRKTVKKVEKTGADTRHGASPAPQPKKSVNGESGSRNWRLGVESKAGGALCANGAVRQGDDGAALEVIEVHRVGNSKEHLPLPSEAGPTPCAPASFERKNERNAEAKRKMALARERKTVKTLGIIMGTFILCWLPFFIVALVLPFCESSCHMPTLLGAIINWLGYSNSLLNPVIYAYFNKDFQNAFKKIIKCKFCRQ

[6] = tested on: cerebellar stem cells; experiment: Neuronal differentiation of cerebellar stem cells (TuJ1 positive cells); assay type: cell-based, rat; conditions: FIG. 2, lane 5, serotonin 5 μM; untreated control less than 20%
Source text: Isolation and quantitation of cerebellar stem cells. Neural stem cells were isolated from rat embryos (obtained from Taconic) at the 19th day of gestation (E19). The rats were sacrificed by inhalation of excess carbon dioxide. The abdomen of the rat was cleaned with 70% ethanol and the uterus was removed quickly and aseptically on the bench top. The uterus was placed in ice cold PBS (GIBCO Cat. # 20012-027) in a 200-ml beaker.
The cerebellar tissue was dissected under a microscope according to the following procedure and collected in a 15-ml tube containing HBSS on ice. The dissection should be completed in 1–2 hours (optimally) and the pH of the HBSS should remain neutral. First, the neck of the embryos was severed towards the bottom and the heads were collected in cold PBS. Next, the skin and scalp was removed from neck and head of the embryo. The brain, including the cerebral cortex, midbrain, cerebellum and some of the spinal cord, was removed by dissection under a microscope and transfered into a clean dish with fresh, cold PBS. The cerebellar region was dissected and cleaned of extraneous tissue, including removal of the meninges, and transferred into cold HBSS in a clean 15 ml tube.
The tube containing the cerebellar tissue was centrifuged at 1,000 RPM for 2 min at 15 C., followed by slow, careful aspiration of the HBSS supernatant (care should be taken to avoid aspirating tissue). (It is best to limit the centrifugation steps as much as possible.) About 1 to 3 ml of DMEM/F12/N2 medium (see below) was immediately added to the remaining tissue; the volume of medium depends on the quantity of the dissected tissue. The tissue was gently triturated about 8 to 10 times using a P-1000 Pipetteman until the tissue was dissociated (as evidenced by cloudy solution), then the tube was incubated in the hood for 5 minutes at room temperature to permit settlement of small particles of undissociated tissue. The supernatant was then transferred into a fresh tube, taking care to avoid the smaller particles of tissue that remained at the bottom of the tube.
Plating and expansion of cerebellar stem cells. The triturated cell suspension of E19 rat cerebellum was seeded into pre-coated 10 cm dishes at 2×10^6 cells per dish. This is denoted as the P0 culture (passage 0). The cells were grown in 5 ml of DMEM/F12/N2 supplemented with 25 mg/L insulin and 10 ng/ml bFGF at 37 C, 5% CO2 and 90% humidity.
Cells were fed daily with 10 ng/ml bFGF. The medium was changed one day after the cells were seeded, and thereafter every other day. On about day 4 of the culture, or when cells reached 70% confluence, the culture was passaged (see “Passage of cerebellar stem cells” below) and seeded into 10 cm dishes at an initial density of 2×10^6 cells per dish. This is denoted as the P1 culture (passage 1). The passaged cells at P1 were grown in DMEM/F12/N2 medium supplemented with 25 mg/L insulin and 10 ng/ml bFGF. The medium was changed every other day.
After two days of culture, some cells were passaged into a P2 culture, and some were seeded in 12-well tissue culture plates for experimental use. One ml of DMEM/F12/N2 medium was used per well of a 12-well plate at 2×10^4 cells per well. Experimental treatments were initiated the day after passage.
(§1) Drug treatments. Stem cells obtained as described above were treated with drugs and subjected to differentiation protocols in the second passage. Cells were plated at a density of 1×10^4 cells per well of a 12-well petridish (Falcon).
Drug treatments were started on the next day. […] The WAY 100635 antagonist compound was used simultaneously with buspirone or serotonin in the blocking experiments.

[7] = tested on: cortical neural stem cells; experiment: Neuronal differentiation of cortical neural stem cells (β tubulin III / TuJ-1 immunofluorescence); assay type: cell-based, rat; conditions: 6 days
Source text: Isolation of cortical and striatal stem cells. Timed pregnant Sprague Dawley rats obtained from Taconic at embryonic age E14-E15 were sacrificed as described above and the uterus removed and placed in ice cold PBS in a 10 cm petridish. After rinsing the uterus in PBS, embryos were removed from the uterus, rinsed in PBS and collected in cold HBSS (buffered with HEPES and sodium bicarbonate) in a 10 cm petridish and placed on ice.
The cortex and striatum was dissected under a microscope and collected in a 15 ml tube of HBSS, on ice. Removal of meninges is not possible at this age, and no attempt was made to do so. If the dissected tissue was in large enough chunks and settle to the bottom of the tube, no centrifugation was performed. Alternatively, the tube was centrifuged at 1000 rpm for 5 minutes to pellet the tissue. Following centrifugation, the 15 ml tube containing the tissue was sprayed with 70% ethanol and taken into the sterile hood.
The HBSS was aspirated and replaced with 10 ml of DMEM/F12. The tissue was collected at the bottom of the tube by gravity or centrifugation, medium was aspirated, and 1 ml of DMEM/F12 was to the tissue. Cells were dissociated by trituration as described above, followed by addition of 5 ml of DMEM/F12 and a second round of trituration. […] The tubes were placed standing 5–10 minutes in the hood to allow larger particles and meninges to settle. While the meninges were settling, a cell count was made. 10 μl of the cell suspension is diluted with trypan blue and counted in a hemocytometer. Cells were counted in the four outer chambers with the larger squares, and cell count calculated assuming that the volume enclosed in each of the chambers was […].
Plating, expansion and passaging of cortical and striatal stem cells A generous amount of the triturated cell suspension was left in the original 15 ml tube to avoid fibroblast contamination in cultures. About 4–5 ml of the 6 ml of cells suspension was used for plating. Cells were plated at a concentration of approximately 1×10^6 per 10 cm dish. This culture is designated P0 (passage 0).
Following plating cells were expanded for about 3–4 days. The cultures were never permitted to reach more than 70% confluency. Cultures were then passaged as follows: 5 ml of HBSS was added to each 10 cm dish and the cells incubated at 37° C. for 15–45 minutes, or until sufficient numbers of the stem cells were rounded up. It is not expected that all cells in the culture will round up as there are several cell types in the culture at P0. The pH of the HBSS should be neutral at all times during this incubation. Cells were then removed from the dish by pipetting with a 5 ml pipette, or by scraping with a policeman, collected in a 15 or 50 ml conical tube, and centrifuged at 1000 g for 5 minutes. Cells were gently re-suspended in medium, counted, and plated at a density of about 1×10^6 per 10 cm dish.
as §1
Drug treatments were started on the next day. […] The WAY 100635 antagonist compound was used simultaneously with buspirone or serotonin in the blocking experiments. Positive and negative control cultures were those treated with BDNF and FGF alone, respectively.
Cells were treated with the designated concentrations of drugs or combinations thereof, daily, and were fed every alternate day with fresh medium. Experiments were maintained for about 6–10 days in most cases.

**Q.** With `COc1ccc2[nH]cc(CCN(C)C)c2c1` [5-methoxy-N,N-dimethyltryptamine] as the molecule, how does the “affinity for the 5HT1A receptor” value [1] read?
**A.** high affinity

**Q.** For `CCCN(CCC)[C@@H]1CCc2ccc3[nH]c(C#N)cc3c2C1` [U-92016A], which “intrinsic activity as 5-HT1A receptor agonist” value [2] is on record?
**A.** exceptionally high degree of intrinsic activity

**Q.** For `COc1ccccc1N1CCN(CCN(C(=O)C2CCCCC2)c2ccccn2)CC1` [WAY100635, N-[2-[4-(2-Methoxyphenyl)-1-piperazinyl]ethyl]-N-2-pyridinylcyclohexanecarboxamide], which “effect of antagonist on buspirone-induced neuronal differentiation” value ([3]; WAY100635 10 nM added simultaneously with buspirone 500 nM, FIG. 2 lane 4) is on record?
**A.** inhibited neuronal differentiation

**Q.** And the “effect of antagonist on serotonin-induced neuronal differentiation” value ([3]; WAY100635 10 nM added simultaneously with serotonin 5 μM, FIG. 2 lane 6)?
**A.** inhibited neuronal differentiation

**Q.** And the “effect of antagonist on vasoactive intestinal peptide-induced neuronal differentiation” value ([3]; WAY100635 10 nM added to VIP-treated cells, FIG. 2 lane 8)?
**A.** did not prevent or inhibit neuronal differentiation

**Q.** For `CNCCC(Oc1ccc(C(F)(F)F)cc1)c1ccccc1` (centres unmarked) [fluoxetine], which “neurogenesis in adult rat hippocampus” value [4] is on record?
**A.** increases neurogenesis

**Q.** With `CC1(C)CC(=O)N(CCCCN2CCN(c3ncccn3)CC2)C(=O)C1` [gepirone] as the molecule, how does the “selectivity for 5-HT1A receptors over dopamine D2 receptors” value [5] read?
**A.** much greater selectivity

**Q.** Which differentiation of neurons [6] does the source give for `NCCc1c[nH]c2ccc(O)cc12` [serotonin, 5-hydroxytryptamine] here?
**A.** 60%

**Q.** Which results are given for “bFGF: recombinant human basic fibroblast growth factor (R&D Systems), mitogenic growth factor; negative control”?
**A.** Total No. of Cells ([7]; 10 ng/ml bFGF): 7330 and 10210; No. Fluorescent Cells ([7]; 10 ng/ml bFGF, TuJ-1 staining): 33 and 65

B1: BDNF: brain-derived neurotrophic factor (R&D Systems), a known neuronal differentiation factor; positive control (protein, UniProt P23560 19-247, looked up)
Neurotrophic factor BDNF …: APMKEANIRGQGGLAYPGVRTHGTLESVNGPKAGSRGLTSLADTFEHVIEELLDEDQKVRPNEENNKDADLYTSRVMLSSQVPLEPPLLFLLEEYKNYLDAANMSMRVRRHSDPARRGELSVCDSISEWVTAADKKTAVDMSGGTVTVLEKVPVSKGQLKQYFYETKCNPMGYTKEGCRGIDKRHWNSQCRTTQSYVRALTMDSKKRIGWRFIRIDTSCVCTLTIKRGR
**Q.** For B1, which “Total No. of Cells” value ([7]; 20 ng/ml BDNF) is on record?
**A.** 624 and 1006
